Target: Plasma kallikrein (Homo sapiens, UniProt P03952)
Test: Subsequently, PPACK II (Calbiochem) was added as a stop solution to achieve a final concentration of 1 μM and fluorescence was measured using an Envision Reader (PerkinElmer) with the wavelength excitation setting of 355 nm and the wavelength emission setting of 460 nm.Evaluation of the Inhibition of Human KLKB1 in Dextransulfat Activated Human PPP.Platelet poor plasma (PPP) obtained from human wholeblood, anticoagulated with EDTA, was activated with 12.5 μg/mL dextransulfate for 7 min on ice. The activated PPP was incubated with various concentrations of the test compound in assay buffer. […] Measurements were performed in a kinetic interval every 2nd minute for 16 min using a Spectramax M5 (Molecular Devices) with the following settings of the wavelength excitation of 350 nm and wavelength emission of 450 nm.

Sequence of Plasma kallikrein (P03952 20-390 limits assumed): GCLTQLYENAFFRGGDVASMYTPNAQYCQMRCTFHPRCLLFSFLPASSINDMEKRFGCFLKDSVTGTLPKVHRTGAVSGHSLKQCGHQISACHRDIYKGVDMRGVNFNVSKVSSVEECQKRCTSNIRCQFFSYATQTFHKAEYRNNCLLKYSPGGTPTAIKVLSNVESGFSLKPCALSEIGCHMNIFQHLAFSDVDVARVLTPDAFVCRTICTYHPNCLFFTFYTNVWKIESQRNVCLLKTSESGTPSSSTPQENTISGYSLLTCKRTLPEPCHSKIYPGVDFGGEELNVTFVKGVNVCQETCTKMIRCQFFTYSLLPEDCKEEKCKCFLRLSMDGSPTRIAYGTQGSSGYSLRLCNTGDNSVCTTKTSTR
Sequence of Plasma kallikrein (P03952 391-638 limits assumed): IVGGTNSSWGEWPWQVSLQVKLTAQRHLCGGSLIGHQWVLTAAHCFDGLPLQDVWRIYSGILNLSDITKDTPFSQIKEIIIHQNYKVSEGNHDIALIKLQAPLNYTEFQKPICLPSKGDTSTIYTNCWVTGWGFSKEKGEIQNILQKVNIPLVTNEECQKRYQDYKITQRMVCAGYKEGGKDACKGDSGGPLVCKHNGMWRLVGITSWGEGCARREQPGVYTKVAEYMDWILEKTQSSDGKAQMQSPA

IC50 [nM]	SMILES
1900	Cc1ccc2cc(Cn3cc(C(=O)N[C@H]4CCc5c4ccnc5N)nn3)ccc2n1
36	Cc1ccc2cc(Cn3cc(C(=O)N[C@@H]4CCc5c4ccnc5N)nn3)ccc2n1

Reference: ChEMBL document CHEMBL5727277, “Heteroarylcarboxamide derivatives as plasma kallikrein inhibitors” (2019)
